BigSolDB 2.1

CCOc1ccc(C2NC(=O)NC=C2C(=O)c2cc(OC)c(OC)c(OC)c2)cc1 (stereo not given)
Settings	solubility (mole fraction)
in PEG-400, 298.15 K	0.00513
in PEG-400, 303.15 K	0.00678
in PEG-400, 308.15 K	0.0083
in PEG-400, 313.15 K	0.0104
in PEG-400, 318.15 K	0.0122

in water
Settings	solubility (mole fraction)
298.15 K	8.04e-06
303.15 K	1.11e-05
308.15 K	1.52e-05
313.15 K	2.04e-05
318.15 K	2.57e-05
